Measurements as given in patent publication US20080206761A1, “Ex Vivo Gene Expression in Whole Blood as a Model of Assessment of Individual Variation to Dietary Supplements” (priority 2005, published 2008).

How the values were obtained:
Assay type in all cases: cell-based, human
IL-4 mRNA = experiment: PHA-induced IL-4 mRNA expression in heparinized whole blood ex vivo; details: for ΔΔCt (mean ± standard deviation, n = 3), IL-4 mRNA: supplement 30 min, then 100 μg/mL PHA 2 h, concentrations per footnote
Description: (§1) In this embodiment, phytohemagglutinin-induced gene expression of interleukin-2 (IL-2), interleukin-4 (IL-4), and tumor necrosis factor-α (TNF-α) were quantitated in the following manner. Fifty μL of heparinized whole blood was incubated with various dietary supplements for a period of 30 minutes. The following supplements were employed: vitamins A, C, and D, epigallocatechin gallate (from green tea), genistein (from soy), and curcumin (from the spice turmeric). Vitamin A is known to stimulate the immune system. […] Vitamin D appears to have protective effects against certain cancers. Epigallocatechin gallate is a powerful antioxidant, appears to reduce the multidrug resistance found in cancer cells, and preferentially induces apoptosis in neoplastic cells. Genistein has been found in some studies to have anticarcinogenic activity; possible mechanisms of action include upregulation of apoptosis, inhibition of angiogenesis, inhibition of DNA topoisomerase II and inhibition of protein tyrosine kinases. Curcumin has proapoptotic effects in neoplastic cells and interferes with the activity of the transcription factor NF-κB, which is often highly overexpressed in such cells.
(§2) After incubation with the dietary supplement, 100 μg/mL phytohemagglutinin (PHA) was added and incubation was continued for an additional 2 hours at 37° C. The concentration of each dietary supplement (see Table I, note) was slightly higher than reported blood levels. Then mRNA was purified, cDNA was synthesized, and the levels of IL-2, IL-4, and TNF-α were quantitated by TaqMan real time polymerase chain reaction (PCR) (see Holland, et al., “Detection of specific polymerase chain reaction product by utilizing the 5′ to 3′ exonuclease activity of Thermus aquaticus DNA polymerase,” Proc Natl Acad Sci USA 1991; 88: 7276-80), as described below.
(§3) The mRNA and cDNA were prepared from the whole blood that was exposed to the dietary components, as well as the whole blood which remained unexposed. In brief, home-made 96-well filterplates were placed over collection plates, and 150 μl 5 mM Tris, pH 7.4, was applied. Following centrifugation at 120×g for 1 min at 4° C., 50 μl of blood samples were applied to each well and immediately centrifuged at 120×g for 2 min at 4° C., followed by washing of each well with 300 μl PBS once with centrifugation at 2000×g for 5 min at 4° C. Then, 60 μl stock lysis buffer, containing for example 0.5% N-Lauroylsarcosine, 4×SSC, 10 mM Tris HCl, pH 7.4, 1 mM EDTA, 0.1% IGEPAL CA-630, and 1.791 M guanidine thiocyanate, supplemented with 1% 2-mercaptoethanol (Bio Rad, Hercules, Calif., USA), 0.5 mg/ml proteinase K (Pierce, Rockford, Ill., USA), 0.1 mg/ml salmon sperm DNA (5 Prime Eppendorf/Brinkmann, Westbury, N.Y., USA), 0.1 mg/ml E. coli tRNA (Sigma), a cocktail of 10 mM each of the specific reverse primers shown in Table 2, and standard RNA34 oligonucleotides, were applied to the filterplates, followed by incubation at 37° C. for 10 min. The filterplates were then placed over oligo(dT)-immobilized microplates (GenePlate, RNAture), and centrifuged at 2000×g for 5 min at 4° C. Following overnight storage at 4° C., the microplates were washed with 100 μl plain lysis buffer 3 times, followed by 150 μl of wash buffer (0.5 M NaCl, 10 mM Tris, pH 7.4, 1 mM EDTA) 3 times at 4° C. The cDNA was directly synthesized in each well by adding 30 μl of buffer containing 1×RT-buffer, 1.25 mM each of dNTP, 4 units rRNasin, and 80 units of MMLV reverse transcriptase (Promega) (without primers), and incubation at 37° C. for 2 hours. The specific primer-primed cDNA existed in solution, and oligo(dT)-primed cDNA stayed immobilized in the microplate. […]

TNF-α mRNA = experiment: PHA-induced TNF-α mRNA expression in heparinized whole blood ex vivo; details: supplement 30 min, then 100 μg/mL PHA 2 h, concentrations per footnote
Description: as §1, §2, §3

IL-2 mRNA = experiment: PHA-induced IL-2 mRNA expression in heparinized whole blood ex vivo; details: supplement 30 min, concentrations per footnote
Description: as §1, §2, §3

With `CC1=C(/C=C/C(C)=C/C=C/C(C)=C/CO)C(C)(C)CCC1` [VA, vitamin A] as the compound, how does the “ΔΔCt (mean ± standard deviation, n = 3), IL-4 mRNA” value (IL-4 mRNA; Subject 1) read?
The value was −2.14 ± 0.08.

And the “ΔΔCt (mean ± standard deviation, n = 3), IL-4 mRNA” value (IL-4 mRNA; Subject 2)?
The value was −1.56 ± 0.34.

What about the “ΔΔCt (mean ± standard deviation, n = 3), IL-4 mRNA” value (IL-4 mRNA; Subject 3) of the same compound?
Its value is −0.15 ± 0.40.

What about the “ΔΔCt (mean ± standard deviation, n = 3), IL-4 mRNA” value (IL-4 mRNA; Subject 4) of the same compound?
Its value is −0.98 ± 0.41.

What about the “ΔΔCt (mean ± standard deviation, n = 3), IL-4 mRNA” value (IL-4 mRNA; Subject 5) of the same compound?
The value was −1.24 ± 0.13.

What about the “ΔΔCt (mean ± standard deviation, n = 3), IL-4 mRNA” value (IL-4 mRNA; Subject 6) of the same compound?
Its value is −0.65 ± 0.09.

What about the “ΔΔCt (mean ± standard deviation, n = 3), IL-4 mRNA” value (IL-4 mRNA; Subject 7) of the same compound?
Its value is −1.15 ± 0.39.

What about the “effect on PHA-induced IL-4 expression, in words” value (IL-4 mRNA; summary over 7 subjects of Table I) of the same compound?
The value was “enhanced IL-4 expression, with 1-3 exceptions”.

And the “ΔΔCt (mean ± standard deviation, n = 3), TNFα mRNA” value (TNF-α mRNA; Subject 1)?
Its value is −1.56 ± 0.11.

And the “ΔΔCt (mean ± standard deviation, n = 3), TNFα mRNA” value (TNF-α mRNA; Subject 2)?
Its value is −0.57 ± 0.94.

And the “ΔΔCt (mean ± standard deviation, n = 3), TNFα mRNA” value (TNF-α mRNA; Subject 3)?
The value was 0.51 ± 0.03.

What about the “ΔΔCt (mean ± standard deviation, n = 3), TNFα mRNA” value (TNF-α mRNA; Subject 4) of the same compound?
Its value is −0.08 ± 0.29.

And the “ΔΔCt (mean ± standard deviation, n = 3), TNFα mRNA” value (TNF-α mRNA; Subject 5)?
The value was −0.76 ± 0.34.

What about the “ΔΔCt (mean ± standard deviation, n = 3), TNFα mRNA” value (TNF-α mRNA; Subject 6) of the same compound?
The value was −0.50 ± 0.10.

And the “ΔΔCt (mean ± standard deviation, n = 3), TNFα mRNA” value (TNF-α mRNA; Subject 7)?
The value was −1.11 ± 0.24.

What about the “ΔΔCt (mean ± standard deviation, n = 3), IL-2 mRNA” value (IL-2 mRNA; Subject 1, then 100 μg/mL PHA 2 h 37° C., negative = increased expression) of the same compound?
The value was −0.98 ± 0.04.

And the “ΔΔCt (mean ± standard deviation, n = 3), IL-2 mRNA” value (IL-2 mRNA; Subject 2, then 100 μg/mL PHA 2 h)?
Its value is −1.61 ± 0.32.

What about the “ΔΔCt (mean ± standard deviation, n = 3), IL-2 mRNA” value (IL-2 mRNA; Subject 3, then 100 μg/mL PHA 2 h) of the same compound?
The value was 0.49 ± 0.33.

And the “ΔΔCt (mean ± standard deviation, n = 3), IL-2 mRNA” value (IL-2 mRNA; Subject 4, then 100 μg/mL PHA 2 h)?
Its value is −0.29 ± 0.21.

What about the “ΔΔCt (mean ± standard deviation, n = 3), IL-2 mRNA” value (IL-2 mRNA; Subject 5, then 100 μg/mL PHA 2 h) of the same compound?
Its value is −1.16 ± 0.02.

And the “ΔΔCt (mean ± standard deviation, n = 3), IL-2 mRNA” value (IL-2 mRNA; Subject 6, then 100 μg/mL PHA 2 h)?
Its value is −0.26 ± 0.20.

What about the “ΔΔCt (mean ± standard deviation, n = 3), IL-2 mRNA” value (IL-2 mRNA; Subject 7, then 100 μg/mL PHA 2 h) of the same compound?
The value was −0.66 ± 0.35.
